Target: C-C chemokine receptor type 2 (Homo sapiens, UniProt P41597)
Experiment: Antagonist activity at Homo sapiens (human) CCR2 receptor

C-C chemokine receptor type 2, sequence (P41597 whole entry): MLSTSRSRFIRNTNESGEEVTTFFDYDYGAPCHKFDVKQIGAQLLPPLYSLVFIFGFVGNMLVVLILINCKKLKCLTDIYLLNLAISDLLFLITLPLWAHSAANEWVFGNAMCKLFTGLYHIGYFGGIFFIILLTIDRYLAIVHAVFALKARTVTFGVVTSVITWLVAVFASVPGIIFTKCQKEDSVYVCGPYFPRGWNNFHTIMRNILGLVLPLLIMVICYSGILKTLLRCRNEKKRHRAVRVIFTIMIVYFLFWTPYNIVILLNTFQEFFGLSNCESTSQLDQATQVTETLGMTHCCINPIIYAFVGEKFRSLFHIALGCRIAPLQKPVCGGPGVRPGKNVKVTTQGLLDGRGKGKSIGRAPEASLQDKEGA

O=C(NCc1cc(C(F)(F)F)cc(C(F)(F)F)c1)[C@H](NCCN1CCCCC1)c1ccsc1
IC50: 39 nM

CO[C@@H]1COCC[C@@H]1N[C@@H]1CC[C@](C(=O)N2CCc3ncc(C(F)(F)F)cc3C2)(C(C)C)C1
IC50: 5 nM

From ChEMBL document CHEMBL3044721, “Homology modeling of human CCR2 receptor” (Med Chem Res, 2011)
